Assay results taken from the supplement of paper PMC10307832.

What was measured:
Test in all cases: relative viability (nuclei count vs DMSO), 5 days (fraction); higher = more cells survive
Pictilisib = compound: CS(=O)(=O)N1CCN(Cc2cc3nc(-c4cccc5[nH]ncc45)nc(N4CCOCC4)c3s2)CC1 [Pictilisib]
Procedure, shortened: (§1)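 MetaXpress counted nuclei in 4× images of lung cancer cell lines that had been fixed, permeabilised and Hoechst-stained in one step. Before that, cells in 1536-well plates were kept overnight at 37 °C, pinned with five √10-spaced library-drug doses on vehicle-anchored plates, and cultured 5 days without medium change. Viability takes treated-well nuclei over vehicle-well nuclei and uses the median across plates. Plates were accepted only at control CV below 25% and at least one doubling.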

MK-2206 = compound: NC1(c2ccc(-c3nc4ccn5c(=O)[nH]nc5c4cc3-c3ccccc3)cc2)CCC1 [MK-2206]
Procedure, shortened: as §1

Pictilisib + Luminespib = compound: CS(=O)(=O)N1CCN(Cc2cc3nc(-c4cccc5[nH]ncc45)nc(N4CCOCC4)c3s2)CC1 [Pictilisib] + CCNC(=O)c1noc(-c2cc(C(C)C)c(O)cc2O)c1-c1ccc(CN2CCOCC2)cc1 [Luminespib] (partner 0.01 µM)
Procedure, shortened: (§2)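 Lung cancer cell lines were pin-tool dosed in 1536-well plates on the day after seeding, with either a lone drug or a fixed anchor-drug dose plus five library-drug doses (not always all listed) in √10 steps. Nuclei were counted on 4× images after 5 days. Relative viability is the ratio of treated-well to vehicle-well nuclei counts, with each value a median of duplicate plates.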

Pictilisib + OSI-027 = compound: CS(=O)(=O)N1CCN(Cc2cc3nc(-c4cccc5[nH]ncc45)nc(N4CCOCC4)c3s2)CC1 [Pictilisib] + COc1cccc2cc(-c3nc([C@H]4CC[C@H](C(=O)O)CC4)n4ncnc(N)c34)[nH]c12 [OSI-027] (partner 0.5 µM)
Procedure, shortened: as §2

Row | Cell Line | relative viability (Pictilisib; 0.02 µM) | relative viability (Pictilisib; 0.06325 µM) | relative viability (Pictilisib; 0.6325 µM) | relative viability (Pictilisib; 1 µM, anchor plate) | relative viability (Pictilisib; 2 µM) | relative viability (MK-2206; 0.01 µM) | relative viability (MK-2206; 0.03162 µM) | relative viability (MK-2206; 0.3162 µM) | relative viability (MK-2206; 1 µM) | relative viability (Pictilisib + Luminespib; first compound 0.02 µM) | relative viability (Pictilisib + Luminespib; first compound 0.06325 µM) | relative viability (Pictilisib + Luminespib; first compound 0.6325 µM) | relative viability (Pictilisib + Luminespib; first compound 2 µM) | relative viability (Pictilisib + OSI-027; first compound 0.02 µM) | relative viability (Pictilisib + OSI-027; first compound 0.06325 µM) | relative viability (Pictilisib + OSI-027; first compound 0.6325 µM) | relative viability (Pictilisib + OSI-027; first compound 2 µM)
1 | NCI-H1975 | 0.98 | 0.804 | 0.605 | 0.307 | 0.292 | 1.06 | 0.931 | 0.913 | 0.728 | 0.19 | 0.172 | 0.142 | 0.136 | 0.867 | 0.574 | 0.234 | 0.212
2 | NCI-H2126 | 0.999 | 0.992 | 0.806 | 0.52 | 0.57 | 1.04 | 1.03 | 0.913 | 0.92 | 0.847 | 0.852 | 0.646 | 0.421 | 0.706 | 0.75 | 0.541 | 0.427
3 | NCI-H2087 | 1.07 | 1.09 | 0.968 | 0.913 | 0.689 | 0.938 | 1.25 | 0.881 | 0.746 | 0.138 | 0.144 | 0.19 | 0.165 | 0.503 | 0.446 | 0.32 | 0.237
